Measurements from patent publication US20250052985A1, “SYSTEM AND METHOD FOR QUANTITATIVE PHASE IMAGING FOR MULTI-PARAMETRIC SCREENING OF TUMOR THERAPY RESPONSE” (UNIVERSITY OF UTAH RESEARCH FOUNDATION, priority 2023, published 2025).
Values joined by “and” are separate entries in the source; they are usually repeats but may differ in a detail not shown here. Identical values can stand only once. Like-named read-outs stand apart in the source and are kept apart here.

Legend:
MDA-MB-231 cells [1] = experiment: CellTiter-Glo (CTG) ATP viability assay, MDA-MB-231; format: cell-based; settings: for Min Asymptote: MDA-MB-231, Hill fit of luminescence normalized to solvent control, one line per replicate; for EC50: Homo sapiens
In short: (§1)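 Cell viability was read as ATP content by CellTiter-Glo luminescence after replacing media with reagent, shaking 20 min and resting 10 min. Signal was normalized to solvent control, and a 4-parameter Hill fit to the dose response gave EC50 and depth of response.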

MDA-MB-231 cells [2] = experiment: Quantitative phase imaging (QPI) growth response, MDA-MB-231; format: cell-based; set-up: DoR QPI: scale not given here; ToR 20 μM: unit not given here; settings: for Max Asymptote / Min Asymptote: MDA-MB-231, 4-parameter Hill fit of mean SGR vs concentration, one line per replicate; for EC50: Homo sapiens, MDA-MB-231, MDA-MB-231 cell line
In short: (§2)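 Breast cancer lines imaged noninvasively by DPC-based quantitative phase imaging across 6-point dose responses in triplicate with solvent controls, for 24 h or 72 h after 3 h equilibration, then CellTiter-Glo ATP viability. Mean specific growth rate fitted to a 4-parameter Hill curve for EC50, with an F-test (p<0.01) against a flat line to determine response.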

BT-474 cells = experiment: cells; settings: for Max Asymptote / Min Asymptote: BT-474, 4-parameter Hill fit of mean SGR vs concentration, one line per replicate; for Hill Slope: BT-474, Hill fit; for EC50: Homo sapiens
In short: as §2

MCF-7 cells [3] = experiment: cells; settings: for Hill Slope: MCF-7, Hill fit; for EC50: Homo sapiens
In short: as §2

MCF-7 cells [4] = experiment: CellTiter-Glo (CTG) ATP viability assay, MCF-7; format: cell-based; settings: for EC50: Homo sapiens
In short: as §1

[5] = 24 h QPI, MCF-7, 4-parameter Hill fit of mean SGR vs concentration, one line per replicate

EC50 (MDA-MB-231 cells [1]; MDA-MB-231, 24 h, 24 h CTG, MDA-MB-231, Hill fit, read-out: log10(EC50) (converted)): 1.83 µM
EC50 (MDA-MB-231 cells [1]; MDA-MB-231, MDA-MB-231 cell line, CellTiter-Glo, read-out: EC50, CTG): 3 µM
EC50 (MDA-MB-231 cells [2]; EC50 of the standard deviation, read-out: EC50, SD (converted)): 14.9 µM
EC50 (MDA-MB-231 cells [2]; QPI growth rate, read-out: EC50, QPI): 0.4 µM
EC50 (BT-474 cells; BT-474, 24 h, read-out: log10(EC50), 24 h QPI, BT-474, Hill fit (converted), EC50 in μM per Table 1): 48.8 µM
EC50 (BT-474 cells; BT-474, read-out: EC50, QPI, BT-474 cell line, QPI growth rate): 14.9 µM
EC50 (MCF-7 cells [3]; MCF7, 24 h, read-out: log10(EC50), 24 h QPI, MCF-7, Hill fit (converted), EC50 in μM per Table 1): 0.00154 µM
EC50 (MCF-7 cells [3]; MCF7, read-out: EC50, QPI, MCF-7 cell line, QPI growth rate): 0.3 µM
log10(EC50) (MCF-7 cells [4]; 72 h CTG, MCF-7, Hill fit): 2.689
EC50 (MCF-7 cells [4]; MCF7, 72 h, 72 h CTG, MCF-7, Hill fit, read-out: log10(EC50) (converted)): 0.00215 µM
EC50 (MCF-7 cells [4]; MCF7, MCF-7 cell line, CellTiter-Glo, read-out: EC50, CTG (converted)): 1.6 µM
Structure (SMILES): CC[C@]1(O)C[C@@H]2CN(CCc3c([nH]c4ccccc34)[C@@](C(=O)OC)(c3cc4c(cc3OC)N(C)[C@H]3[C@@](O)(C(=O)OC)[C@H](OC(C)=O)[C@]5(CC)C=CCN6CC[C@]43[C@@H]65)C2)C1 [Vinblastine]
Hill Slope (MDA-MB-231 cells [1]; 24 h CTG, MDA-MB-231, Hill fit): 0.3445
Min Asymptote (MDA-MB-231 cells [1]; 24 h CTG): 0.5659
Min Asymptote (MDA-MB-231 cells [1]; 72 h CTG): 0.06356 and 0.2911
DoR CTG (MDA-MB-231 cells [1]; MDA-MB-231 cell line, depth of response, CellTiter-Glo): 1.0
Max Asymptote (MDA-MB-231 cells [2]; 24 h QPI): 0.02419 and 0.02824 and 0.03124
Min Asymptote (MDA-MB-231 cells [2]; 24 h QPI): 0.0149 and 0.01503 and 0.01517
Max Asymptote (MDA-MB-231 cells [2]; 72 h QPI): 0.007654 and 0.0105 and 0.007938
Min Asymptote (MDA-MB-231 cells [2]; 72 h QPI): 0.03001 and 0.01871 and 0.03086
growth rate and heterogeneity over time (MDA-MB-231 cells [2]; MDA-MB-231): decrease in growth rate and heterogeneity simultaneously
growth rate and heterogeneity over time (MDA-MB-231 cells [2]; MDA-MB-231, 0.4 μM): decrease in growth rate and heterogeneity simultaneously
growth rate and heterogeneity over time (MDA-MB-231 cells [2]; MDA-MB-231, 2 μM): decrease in growth rate and heterogeneity simultaneously
growth rate and heterogeneity over time (MDA-MB-231 cells [2]; MDA-MB-231, 20 μM): decrease in growth rate and heterogeneity simultaneously
growth rate and heterogeneity as concentration increases (MDA-MB-231 cells [2]; MDA-MB-231, FIG. 22): decrease in growth rate and heterogencity simultaneously
growth rate and heterogeneity over time (MDA-MB-231 cells [2]; MDA-MB-231, lowest concentrations, FIG. 21 G-H): growth rate decreases over time with little change in heterogeneity
DoR QPI (MDA-MB-231 cells [2]; MDA-MB-231 cell line, depth of response, QPI): 0.8
ToR 20 μM (MDA-MB-231 cells [2]; MDA-MB-231 cell line, time of response at 20 μM): 4.7
Max Asymptote (BT-474 cells; 24 h QPI): 0.007582
Min Asymptote (BT-474 cells; 24 h QPI): −0.004812
Hill Slope (BT-474 cells; 24 h QPI): 0.4052
Max Asymptote (BT-474 cells; 72 h QPI): −0.001678 and −0.002248
Min Asymptote (BT-474 cells; 72 h QPI): 0.002895 and 0.003538
Hill Slope (BT-474 cells; 72 h QPI): 2.4178 and 1.3815
growth rate and heterogeneity over time (BT-474 cells; BT-474, 0.0016 μM): decrease in growth rate at constant heterogeneity that is greater than the control
growth rate and heterogeneity over time (BT-474 cells; BT-474, 0.016 μM): decreased growth rate and increased heterogeneity
growth rate and heterogeneity over time (BT-474 cells; BT-474, 0.4 μM): reduced growth rate at the same level of heterogeneity as the control
average growth rate over time (BT-474 cells; BT-474, 20 μM): slowly decreases over 12-60 h of treatment
growth rate and heterogeneity over time (BT-474 cells; BT-474, 20 μM): decreases, while the heterogeneity for both populations increases
change of population spread (SD) of SGR (BT-474 cells; BT-474, 20 μM, with significant decrease in mean response): no significant change to the spread
response of growth rate and heterogeneity to treatment (BT-474 cells; BT-474, FIG. 5E, 22, 23): both reduced growth rate and slightly increased heterogeneity
growth rate and heterogeneity as concentration increases (BT-474 cells; BT-474, FIG. 22): decrease in growth rate as concentration increases while heterogeneity remains constant
DoR QPI (BT-474 cells; BT-474 cell line, depth of response, QPI): 2.8
ToR 20 μM (BT-474 cells; BT-474 cell line, time of response at 20 μM): 4.9
Max Asymptote (MCF-7 cells [3]; [5]): 0.01958
Min Asymptote (MCF-7 cells [3]; [5]): 0.005796
Hill Slope (MCF-7 cells [3]; 24 h QPI): 3.2016
Min Asymptote (MCF-7 cells [3]; 72 h QPI, MCF-7, 4-parameter Hill fit of mean SGR vs concentration, one line per replicate): 0.01979 and 0.02842 and 0.02817
Hill Slope (MCF-7 cells [3]; 72 h QPI): 0.3759 and 0.3808 and 0.4308
DoR QPI (MCF-7 cells [3]; MCF-7 cell line, depth of response, QPI): 0.4
ToR 20 μM (MCF-7 cells [3]; MCF-7 cell line, time of response at 20 μM): −3.0
Hill Slope (MCF-7 cells [4]; 72 h CTG, MCF-7, Hill fit): 0.2572 and 0.2217
Min Asymptote (MCF-7 cells [4]; 72 h CTG, MCF-7, Hill fit of luminescence normalized to solvent control, one line per replicate): 4.32E−11 (2×) and 1.18E−11
DoR CTG (MCF-7 cells [4]; MCF-7 cell line, depth of response, CellTiter-Glo): 0.8
